One assay relates to Nrf2. In words: Luciferase reporter assay using H4IIE-ARE8L cells (Nrf2 activation). The following applies: R-sulforaphane Conc. Final 4.55 μg/ml as printed, concentrations of fractions not given, DMSO 0.45 % control 2921. The format is cell-based, rat. As to the method: PloS One. 2012; 7 (5): e36774). […] The media was exchanged every two to three-days. The DMEM assay medium used charcoal treated FBS ([…] transactivation assay was performed in 96 well plates. The plates were seeded with approximately 40,000 cells per well in 100 μ[…] and incubated over night at 37° C. Then the test compounds were diluted in […] and given to the cells as described below. The cells were incubated for at least further 16 h at 37° C. and 5% CO2. Cells were equilibrated to room temperature. Lysis of the cells was done by adding 100 μL lysis solution, Steady-Glo® luciferase buffer according to the manufacturer (Promega) containing 0.5 mM DTT per well and incubated for 10 min at room temperature with gentle shaking. The luminescence was measured within 2 hours after incubation on a luminometer (Mithras, Berthold Technologies). […] We used a rat hepatoma cell line that was stably transfected with a construct that contains eight tandem ARE elements in front of a luciferase reporter gene ([…], et al 2012. PloS One. 2012; 7(5):e36774). All extracts, fractions and pure compounds were tested for concentrations that induce toxicity. Non-toxic concentrations were then selected for treating cells as describes in the methods section.
On the technique in general: In a reporter assay the amount or activity of a reporter protein is the signal.

In assay [1] the test system is IL-6. In words: IL-6 secretion of BEAS-2B cells treated with Diesel Particulate Matter. The assay is classed as cell-based, human. The following applies: for IL-6 % of PM + DMSO: PM + DMSO = 100. An excerpt:
(§1) The human bronchial epithelial cell line BEAS-2B was from ATCC (American Type Culture Collection, Manassas, Va.) and cultured in Bronchial Epithelial cell Growth Medium (BEGM, Lonza, Wakersville, Md.) in CellBIND® surface plastic flasks (Corning Inc., Corning, N.Y.). The adenocarcinomic human alveolar basal epithelial A549 cell line was obtained from ATCC and cultured in Kaighn's Modification of Ham's F-12 Medium (F-12K medium) (Life Technologies, USA), supplemented with 10% FBS (Sigma, Saint-Louis, Mo.). These cells were cultured at 37° C. in a humidified atmosphere containing 5% CO2.
BEAS-2B cells were seeded in 12-well CellBIND® surface culture plates (Corning Inc.) at 3 to 4×10^5 cells per well. A549 cells were seeded in 12-well plates at 2×10^5 cells per well.
Diesel Particulate Matter (Standard Reference Material SRM 1650b, National Institute of Standards & Technology, NIST, Gaithersburg, Md.) at 80 mg/ml DMSO (100%) were sonicated for 5 min and thereafter diluted 400 fold in medium. This dilution was twofold further diluted for the assay.
After 24 h, cells were treated with the diluted Diesel Particulate Matter at 100 μg/ml and in the presence of different concentrations of Laurus Extracts, other plant extracts, fractions and compounds as indicated. The final DSMO concentrations were 0.175%. Untreated cells or cells treated with 0.175% DMSO were used as controls. After 24 h, cell supernatants were collected. The concentrations of IL-6 and IL-8 in the supernatants were determined by Luminex kits (BIO-RAD Laboratories, Hercules, Calif.) and used in the LiquiChip Workstation IS 200 (Qiagen, Hilden, Germany). The data were evaluated with the LiquiChip Analyser software (Qiagen).
Mean values, standard deviation and p-values with Student's t-test were calculated with Excel. P-values […] 0.05 were considered as indication for significance.

Assay [2] relates to IL-6. Put plainly: IL-6 secretion of A549 cells treated with Diesel Particulate Matter. The format is cell-based, human. The following applies: Table 4, LPS 10 μg/mL.
Source text: as §1
(§2) BEAS-2B cells were seeded in 12-well CellBIND® surface culture plates (Corning Inc.) at 3 to 4×10^5 cells per well. A549 cells were seeded in 12-well plates at 2×10^5 cells per well. […]
(§3) After 24 h, cells were treated with the diluted Diesel Particulate Matter at 100 μg/ml and in the presence of different concentrations of Laurus Extracts, other plant extracts, fractions and compounds as indicated. […] The concentrations of IL-6 and IL-8 in the supernatants were determined by Luminex kits (BIO-RAD Laboratories, Hercules, Calif.) and used in the LiquiChip Workstation IS 200 (Qiagen, Hilden, Germany). The data were evaluated with the LiquiChip Analyser software (Qiagen).
(§4) Mean values, standard deviation and p-values with Student's t-test were calculated with Excel. […]

The test system of another assay is IL-8. In words: IL-8 secretion of A549 cells treated with Diesel Particulate Matter. The following applies: Table 5, LPS 10 μg/mL. The assay is classed as cell-based, human.
Source text: as §1, §2, §3, §4

The values below come from patent publication US20220160804A1, “USE OF LAURUS NOBILIS EXTRACT FRACTIONS TO PROTECT AGAINST AIR POLLUTION RELATED DISEASES” (DSM IP Assets B.V., priority 2019, published 2022).

For the compound `C[S+]([O-])CCCCN=C=S` (stereo not shown) [R-Sulforaphane, R-sulforaphane], the “Nrf-2 activity, Average” value with Nrf2 is listed as 13233 relative units of luciferase fluorescence.

Consider Lipopolysaccharide [LPS], for which the “IL-6 induction relative to PM and DMSO” value in the assay with IL-6 [1] (LPS 10 μg/mL versus PM + DMSO (Table 2)) is on record as “over 40 times”. Besides, the “IL-6” value is reported as 3760 pg/mL in the assay on IL-6 [1] (Table 2, LPS 10 μg/mL, 24 h); 6477 pg/mL in the assay with IL-6 [1] (Table 3, LPS 10 μg/mL, 24 h); 19.6 pg/mL in the assay with IL-6 [2] (24 h). Moreover, the “IL-6 % of PM + DMSO” value with IL-6 [1] (Table 2, LPS 10 μg/mL, 24 h) is 4482%; with IL-6 [1] (Table 3, LPS 10 μg/mL), 10612%; in the assay with IL-6 [2] (PM + DMSO = 100), 45%. Moreover, the “IL-8” value in the assay on IL-8 (24 h) came out at 406 pg/mL. In addition, in the assay with IL-8 (PM + DMSO = 100), the “IL-8 % of PM + DMSO” value was determined as 140%.
